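Growth conditions: 96-well plates. Treatment: test compound, 48 hours, 5 concentrations. Analysis: linear interpolation between bracketing concentrations; unreached endpoints set to highest concentration. TGI marks complete inhibition of growth.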
Legend:
Test in all cases: growth of human tumour cells (NCI), 48 h
[1] = test system: CAKI-1 renal
[2] = test system: HCC-2998 colon
[3] = test system: HL-60(TB) leukemia
[4] = test system: HOP-92 NSCLC
[5] = test system: HS 578T breast
[6] = test system: K-562 leukemia
[7] = test system: LOX IMVI melanoma
[8] = test system: MALME-3M melanoma
[9] = test system: MDA-MB-435
[10] = test system: NCI-H460 lung
[11] = test system: NCI/ADR-RES ovarian
[12] = test system: OVCAR-8 ovarian
[13] = test system: PC-3 prostate
[14] = test system: RPMI-8226 leukemia
[15] = test system: SF-539 CNS
[16] = test system: SK-MEL-2 melanoma
[17] = test system: SK-OV-3 ovarian
[18] = test system: SNB-75 CNS
[19] = test system: T-47D breast

Row | SMILES | TGI [1] [µM] | TGI [2] [µM] | TGI [3] [µM] | TGI [4] [µM] | TGI [5] [µM] | TGI [6] [µM] | TGI [7] [µM] | TGI [8] [µM] | TGI [9] [µM] | TGI [10] [µM] | TGI [11] [µM] | TGI [12] [µM] | TGI [13] [µM] | TGI [14] [µM] | TGI [15] [µM] | TGI [16] [µM] | TGI [17] [µM] | TGI [18] [µM] | TGI [19] [µM]
1 | Cc1nc2ccc(S(=O)(=O)Nc3ccccc3)cc2c(=O)n1NC(=O)CNc1ccccc1 | > 100 | > 100 | > 100 | > 100 | > 100 | > 100 | > 100 | > 100 | > 100 | > 100 | > 100 | > 100 | > 100 | > 100 | > 100 | > 100 | > 100 | > 100 | 
2 | O=C1CCC(=O)N1Cc1ccccc1N=[N+]([O-])c1ccccc1CN1C(=O)CCC1=O |  | > 100 | > 100 |  |  | > 100 | > 100 | > 100 |  | > 100 |  | > 100 |  | > 100 | > 100 | > 100 |  | 65.6 | 
3 | O=C1C(N2CCNCC2)=C(Cl)C(=O)c2ncccc21 | > 10 | > 10 |  | 7.82 | > 10 | > 10 |  | > 10 | > 10 | > 10 |  | > 10 | > 10 | > 10 | > 10 | > 10 | > 10 | > 10 | > 10
4 | C=C(C)C1Cc2c(cc(O)c3c(=O)c4c(oc23)C(O)Oc2cc(OC)c(OC)cc2-4)O1 (configuration not stated) | > 10 | > 10 | > 10 | > 10 |  | > 10 |  | > 10 | > 10 | > 10 | > 10 | > 10 | > 10 | > 10 | > 10 |  |  |  | > 10
5 | O=S1CCS(=O)CCS(=O)CC1 (configuration not stated) |  | > 100 | > 100 | > 100 |  | > 100 | > 100 |  | > 100 | > 100 | > 100 | > 100 | > 100 |  | > 100 |  | > 100 | > 100 | > 100
6 | CC(=O)OCC1OC(n2c(-c3ccccc3)c(C(C)=O)c(-c3ccc(Cl)cc3)c(C#N)c2=S)C(OC(C)=O)C(OC(C)=O)C1OC(C)=O (configuration not stated) | > 100 | > 100 | > 100 | 71.5 |  | > 100 | > 100 | > 100 | > 100 | > 100 | > 100 | > 100 | 8.46 |  | > 100 |  | > 100 | > 100 | > 100
7 | COc1ccc2nc3ccc(OC)cc3c(SCc3ccc([N+](=O)[O-])cc3)c2c1 | > 100 | > 100 | > 100 | > 100 |  | > 100 | > 100 | > 100 | > 100 | > 100 | > 100 | > 100 | > 100 |  | > 100 | > 100 | > 100 | > 100 | > 100
8 | COc1cc(C2c3cc(O)c(OC)cc3C3OCC2C3CO)ccc1O (configuration not stated) | > 100 | > 100 | > 100 | > 100 |  | > 100 | > 100 | > 100 | > 100 | > 100 | > 100 |  | > 100 | > 100 | > 100 | > 100 | > 100 | > 100 | > 100
9 | CS/C1=C(\c2ccc(C)cc2)N(c2ccccc2)C(=O)C(=O)N(c2ccccc2)/C(c2ccc(C)cc2)=C(/SC)SS1 | > 100 | > 100 | > 100 | > 100 |  | > 100 | > 100 | > 100 | > 100 | > 100 | > 100 | > 100 | > 100 | > 100 | > 100 | > 100 |  | > 100 | > 100
10 | [O-][n+]1onc2c1CCC(=N\O)/C2=N/Nc1ccccc1 | > 100 |  | > 100 |  | > 100 | > 100 | > 100 | > 100 | > 100 | > 100 | > 100 | > 100 | > 100 | > 100 | > 100 | > 100 | > 100 | > 100 | 
11 | COc1cc(C)c2c(=O)c3ccccc3n(C)c2c1 | 76.5 | > 100 | 69.7 | 25.8 | 72.6 | 39.1 | 34.4 | 73.2 | > 100 | > 100 | > 100 | 78.8 | 78.2 |  | 34 | 78.3 | > 100 | 72.8 | 
12 | NC(=S)N/N=C(\Cc1nc2ccc(Cl)cc2[nH]c1=O)C(=O)Nc1ccc(Cl)cc1 | > 100 | > 100 | > 100 | > 100 | > 100 |  | > 100 |  | > 100 | > 100 | > 100 | > 100 | > 100 |  | > 100 | > 100 | > 100 | > 100 | 
13 | O=C(COc1ccc(OCC(=O)N2C(=O)CSC2=Nc2ccccc2)cc1)N1C(=O)CSC1=Nc1ccccc1 | 47.7 | 44.2 |  | > 100 |  | > 100 |  | 86.2 | > 100 | > 100 | > 100 |  | > 100 | > 100 |  | > 100 | > 100 | > 100 | 
14 | c1ccc(Cc2nc(Cc3n[nH]c(Cc4ccccc4)n3)n[nH]2)cc1 |  | > 100 |  | > 100 | > 100 | > 100 | > 100 |  | > 100 |  | > 100 | > 100 | > 100 | > 100 | > 100 | > 100 | > 100 | > 100 | 
15 | NNC(=O)c1ccccc1NC(=O)/C(=C/c1ccccc1O)NC(=O)c1ccccc1 | 31.8 | > 100 | > 100 | > 100 | 39.3 | > 100 | > 100 | > 100 | > 100 | > 100 | 50.8 | 37.7 |  | > 100 | 92.4 |  | > 100 | 25.9 | > 100

From PubChem BioAssay (NCI)
